Data published in patent publication EP2272817A1, “PAI-1 INHIBITOR” (Institute of Medicinal Molecular Design, Inc., priority 2008, dated 2009).

Target: recombinant human PAI-1 (Homo sapiens, UniProt P05121)
Test: Test Example 2: Human PAI-1 Inhibitory Activity (pH 7.4 HEPES buffer, 10 minutes incubation with two-chain tPA)
Assay type: biochemical
Set-up: purchased Molecular Innovations, Inc
Conditions: read-out: Inhibition Rate of PAI-1 Activity (%)
Experimental: 0.1 M HEPES, 0.1 M NaCl. 1 mM EDTA. 0.1 % Polyethylene glycol 8,000 (Hampton Research Corporation),
2 mM Dimethyldecylphoshine oxide [Apo-10] (Fluka Corporation)

Sequence of recombinant human PAI-1 (P05121 24-402): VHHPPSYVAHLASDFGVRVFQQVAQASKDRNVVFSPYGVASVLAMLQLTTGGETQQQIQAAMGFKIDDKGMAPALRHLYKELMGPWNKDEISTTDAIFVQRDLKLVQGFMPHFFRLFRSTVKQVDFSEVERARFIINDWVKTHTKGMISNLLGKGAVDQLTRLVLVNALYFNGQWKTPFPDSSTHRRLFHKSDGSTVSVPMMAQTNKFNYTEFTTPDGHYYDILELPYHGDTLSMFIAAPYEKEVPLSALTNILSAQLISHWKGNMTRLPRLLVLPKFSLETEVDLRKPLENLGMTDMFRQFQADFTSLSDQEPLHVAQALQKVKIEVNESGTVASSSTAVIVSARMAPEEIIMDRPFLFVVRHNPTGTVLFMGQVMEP

| SMILES | inhibition at 0.1 µM | inhibition at 0.3 µM | inhibition at 1 µM | inhibition at 3 µM | inhibition at 10 µM | inhibition at 25 µM |
| --- | --- | --- | --- | --- | --- | --- |
| Cc1cccc(-c2ccc(OCC(=O)O)c(Oc3ccc(C(C)(C)C)cc3)c2)c1 [Compound 319] | 0% | 9% | 17% | 70% | – | – |
| CCCCCOc1cc(-c2ccc(OC(F)(F)F)cc2)ccc1CN(CC(=O)O)c1ccc(C(C)(C)C)cc1 [Compound 649] | 10% | 64% | 96% | 97% | – | – |
| CCC(CC)Oc1ccc(-c2ccc(CCC(=O)O)c(Oc3ccc(C(C)(C)C)cc3)c2)cc1 [Compound 522] | 33% | 71% | 98% | 98% | – | – |
| CCCCCCOc1cc(-c2ccc(OC(F)(F)F)cc2)ccc1OC(CCCCCC)C(=O)O (centres unmarked) [Compound 430] | 1% | 15% | 97% | > 99% | – | – |
| CC(C)(C)c1ccc(Oc2cc(-c3ccccc3OC(F)(F)F)ccc2/C=C/C(=O)O)cc1 [Compound 466] | 4% | 9% | 88% | > 99% | – | – |
| CC(C)(C)Oc1ccc(Oc2cc(-c3ccc(OC(F)(F)F)cc3)ccc2CCC(=O)O)cc1 [Compound 473] | 15% | 9% | 26% | > 99% | – | – |
| CC(C)(C)c1ccc(-c2ccc(CN(C(=O)C(=O)O)c3ccc(OC(F)(F)F)cc3)cc2)cc1 [Compound 615] | – | – | 43% | 98% | > 99% | 95% |
| CCCCC(C(=O)O)N(Cc1ccc(C(C)(C)C)cc1)c1ccc(-c2ccc(OC(F)(F)F)cc2)cc1 (centres unmarked) [Compound 642] | 16% | 57% | 94% | 93% | – | – |
| CC(C)(C)c1ccc(Oc2cc(-c3cccc(C(F)(F)F)c3)ccc2OCC(=O)O)cc1 [Compound 315] | 13% | 16% | 60% | > 99% | – | – |
| CCCCC(Oc1cc(-c2ccc(OC(F)(F)F)cc2)ccc1Oc1ccc(C(C)(C)C)cc1)C(=O)O (centres unmarked) [Compound 303] | 0% | 13% | 87% | 94% | – | – |
| Cc1ccc(-c2ccc(OCC(=O)O)c(Oc3ccc(C(C)(C)C)cc3)c2)cc1 [Compound 444] | 0% | 0% | 11% | 96% | – | – |
| CC(C)(C)c1ccc(COc2cc(-c3ccc(OC(F)(F)F)cc3)ccc2OCC(=O)O)cc1 [Compound 304] | 3% | 1% | 23% | 99% | – | – |
| CCCCC(Oc1cc(-c2ccc(OC(F)(F)F)cc2)ccc1OCCCCc1ccc(F)cc1)C(=O)O (centres unmarked) [Compound 324] | 0% | 1% | 66% | 97% | – | – |
| CC(C)(C)c1cccc(Oc2cc(-c3cccc(OC(F)(F)F)c3)ccc2CCC(=O)O)c1 [Compound 515] | 12% | 16% | 86% | > 99% | – | – |
| CC(C)(C)c1ccc(Sc2cc(-c3ccc(OC(F)(F)F)cc3)ccc2/C=C/C(=O)O)cc1 [Compound 462] | 37% | 94% | 97% | 95% | – | – |
| CCCCc1ccc(-c2ccc(Oc3ccc(C(C)(C)C)cc3)c(OCC(=O)O)c2)cc1 [Compound 505] | 0% | 33% | > 99% | > 99% | – | – |
| O=C(O)C(=O)N(CCCCc1ccccc1)c1ccc(N2CCSCC2)c(-c2ccc(OC(F)(F)F)cc2)c1 [Compound 675] | 10% | 14% | 95% | > 99% | – | – |
